Reference: patent publication EP2266984A1, “Pyrido[2,3-d]pyrimidines as Wnt antagonists for treatment of cancer and arthritis” (Deutsches Krebsforschungszentrum Stiftung des öffentlichen …, priority 2009, dated 2010)

How the values were obtained:
[1] = test system: HepG2; experiment: CellTiterGlo cytotoxicity assay in HepG2; format: cell-based; details: 24h after compound addition
Description: (§1) For examination of cytotoxicity in these cancer cell lines the commercial available CellTiterGlo® Reagent (Promega, USA) was used according to the manufactor.
(§2) Compounds were applied to Hek293T (denoted (1)) or HepG2 (denoted (2)), cultured in Dulbecco's Modified Eagles Medium, supplemented with 10% fetal calf serum and 1% penicillin/streptomycin. Cells were grown in T75 flasks at 37 °C, 5% CO2 and trypsinized when 60-80% confluent by adding 2 ml of 0.25% Trypsin-EDTA solution. Cells were then re-suspended into culture medium yielding approx. 4000 cells (1) or 4500 cells (2), suspended in 30 microl medium. 48h after cell seeding, compounds were added to yield the desired final concentrations. 24h after compound addition cytotoxicity was evaluated. For this purpose the media was removed and CellTiterGlo® was added according to the manufactors manual. In this assay the luciferase emission readout is directly correlated with the cellular amount of ATP, low luciferase emission thus is reflecting cytotoxicity of a compound. For the evaluation of the IC50 the compound was applied in increasing concentrations yielding final concentrations per well of 5nM - 100 microM.

[2] = test system: Hek293T; experiment: CellTiterGlo cytotoxicity assay in Hek293T; format: cell-based; details: 24h after compound addition
Description: as §1, §2

[3] = test system: HFF-1; experiment: Cell line specific cytotoxicity, HFF-1 fibroblasts; format: cell-based, human; details: 10 microM; HFF-1 cell line
Description: For examination of cell line-specific cytotoxicity, compounds were applied to human colorectal cancer cells (HCT116, denoted (1); SW480, denoted (2); Dld-1, denoted (3)) and human fibroblasts (HFF-1, denoted (4); HS-68, denoted (5)), cultured in Mc Coy's (1) and Dulbecco's Modified Eagles Medium ((2)-(5)), supplemented with 10% ((1)-(3)) and 20% ((4), (5)) fetal calf serum and 1% penicillin/streptomycin. Cells were grown in T75 flasks at 37 °C, 5% CO2 and trypsinized when 60-80% confluent by adding 2 ml of 0.25% Trypsin-EDTA solution. Cells were then re-suspended into culture medium yielding approx. 750 cells, suspended in 45 microl medium, were plated into each well of a black 384-well plate for fluorescence imaging experiments. […] Compound incubation was terminated by (a) fixation and (b) permeabilisation of cells, followed by (c) fluorescence labeling of cell nuclei for cytometric quantification or by immunocytochemistry for microscopic evaluation of cell morphology. […]
Cell line-specific cytotoxicity was quantified by counting the number of Hoechst labeled nuclei per well of a 384-well plate using a plate cytometer. Data obtained with the cytometer was analysed using standard data analysis software.
Identified hits were further evaluated by visual inspection of fluorescence micrographs obtained from imaging using a conventional fluorescence microscope.

Row | SMILES | Normalized toxicity values (HepG2) ([1]; 0.005 microM) | Normalized toxicity values (HepG2) ([1]; 0.015 microM) | Normalized toxicity values (HepG2) ([1]; 0.046 microM) | Normalized toxicity values (HepG2) ([1]; 0.137 microM) | Normalized toxicity values (HepG2) ([1]; 0.412 microM) | Normalized toxicity values (HepG2) ([1]; 1.235 microM) | Normalized toxicity values (HepG2) ([1]; 3.704 microM) | Normalized toxicity values (HepG2) ([1]; 11.111 microM) | Normalized toxicity values (HepG2) ([1]; 33.333 microM) | Normalized toxicity values (HepG2) ([1]; 100.000 microM) | Normalized toxicity values (Hek293T) ([2]; 0.005 microM) | Normalized toxicity values (Hek293T) ([2]; 0.015 microM) | Normalized toxicity values (Hek293T) ([2]; 0.046 microM) | Normalized toxicity values (Hek293T) ([2]; 0.137 microM) | Normalized toxicity values (Hek293T) ([2]; 0.412 microM) | Normalized toxicity values (Hek293T) ([2]; 1.235 microM) | Normalized toxicity values (Hek293T) ([2]; 3.704 microM) | Normalized toxicity values (Hek293T) ([2]; 11.111 microM) | Normalized toxicity values (Hek293T) ([2]; 33.333 microM) | Normalized toxicity values (Hek293T) ([2]; 100.000 microM) | also measured
1 | CCOC(=O)c1c(C)nc2c(c(N3CCN(C(c4ccc(F)cc4)c4ccc(F)cc4)CC3)nc(=O)n2-c2ccccc2)c1-c1ccccc1 [Example 157] | 1.1125 | 1.0775 | 1.1275 | 1.0175 | 0.9413 | 0.9785 | 0.9853 | 1.0043 | 1.1100 | 1.1575 | 1.1275 | 1.0600 | 1.1075 | 1.0975 | 0.9535 | 0.9633 | 1.0078 | 1.1475 | 1.3825 | 1.5650 | 
2 | CCOC(=O)c1c(C)nc2c(c(N3CCN(Cc4ccccc4F)CC3)nc(=O)n2-c2ccccc2)c1-c1ccccc1 [Example 150] | 1.1325 | 1.1350 | 1.0275 | 1.0350 | 0.9625 | 0.9870 | 1.0658 | 1.0800 | 1.1425 | 1.2175 | 1.1200 | 1.0780 | 1.0735 | 1.0278 | 1.0553 | 0.9703 | 1.1975 | 1.2900 | 1.3025 | 1.5500 | 
3 | CCOC(=O)c1c(C)nc2c(c(N3CCN(C/C=C/c4ccccc4)CC3)nc(=O)n2-c2ccccc2)c1-c1ccccc1 [Example 153, 7-Methyl-2-oxo-1,5-diphenyl-4-[4-((E)-3-phenyl-allyl)-piperazin-1-yl]-1,2-dihydro-pyrido[2,3-d]pyrimidine-6-carboxylic acid ethyl ester] | 1.0700 | 1.0658 | 0.9725 | 0.9743 | 0.9480 | 0.9543 | 1.1225 | 1.2725 | 1.2650 | 0.0718 | 1.0725 | 1.0650 | 1.0425 | 0.9703 | 1.0800 | 1.0623 | 1.1125 | 1.1475 | 1.1375 | 0.0290 | Effect on normal cells (HFF-1) [3]: not affected
